According to patent publication US20090247624A1, “FORMULATIONS OF RADIOPROTECTIVE ALPHA BETA UNSATURATED ARYL SULFONES” (Onconova Therapeutics Inc., priority 2006, published 2009):

Experiments:
[1] = Octanol:water partition coefficient; assay type: physicochemical
Protocol: (§1) A stability indicating HPLC assay is used during the preformulation studies. Preformulation studies include determination of microscopic and macroscopic properties, partition coefficient, pKa, pH-solubility, pH-stability, solid-state characterization and solid-state stability. XRD and thermal analyses re used to characterize the solid and solid-state stability. The solid-state stability as well as the pH stability of the drug is carried out at 75° C.

[2] = pH-solubility study (equilibrium solubility, pKa); assay type: physicochemical; conditions: for solubility thermodynamic: aqueous solution (buffer not named), thermodynamic from solid
Protocol: as §1

[3] = Stability of solid drug after autoclaving (HPLC); assay type: physicochemical; conditions: autoclaved in a crimped vial
Protocol: A solid drug sample (ON1210), after autoclaving in a crimped vial, is also evaluated for any degradation using the developed HPLC method. The sample, after autoclaving, is used to make a standard solution of 400 μg/mL and injected onto HPLC.

[4] = Half life by route of administration and as suspension; assay type: in vivo
Protocol: When, ON.1210.Na, for example, is administered as a suspension described herein the half life of the drug is on the order of 30-40 hours depending on the specific formulation and its viscosity. This dramatic increase in half-life translates to prolonged exposure to drug over a period of 72 hours and beyond. This increase is possible because of an apparent low dissolution rate of drug from the site of administration.

[5] = General physical properties: solubility in water; assay type: physicochemical
Source text: 1210.Na. The example compound is a sodium salt of (E)-4-Carboxystyryl-4-chlorobenzylsulfone.

[6] = Saturated solubility of ON.1210.Na in different solvent systems; assay type: physicochemical; conditions: for solubility at 24 h: 24 hours of equilibration; for solubility at 48 h: 48 hours of equilibration
[7] = Solid-state stability of ON.1210.Na at 75° C.; assay type: physicochemical
Protocol: as §1
The stability of ON.1210.Na in the solid state is determined by exposing the drug at 75° C. over a prolonged time. The sample is crimped in a 10 mL injection vial and kept at the above temperature. The sample is collected after 15 days and one month and reconstituted with diluting solution and its concentration is determined by HPLC. Appearance of any additional peak in the chromatogram is also noted. A control sample is represented by ON.1210.Na not exposed to 75° C. and reconstituted to a known concentration with diluting solution.

[8] = pH-stability study under accelerated conditions; assay type: physicochemical
Protocol: as §1

## O=C([O-])c1ccc(/C=C/S(=O)(=O)Cc2ccc(Cl)cc2)cc1.[Na+] [ON.1210.Na, (E)-4-Carboxystyryl-4-chlorobenzylsulfone, Sodium Salt]
[1]
  octanol:water partition coefficient: 1.28-2.87
[2]; aqueous buffer, pH 4.0
  solubility thermodynamic: 0.154 µg/mL
[2]; aqueous buffer, pH 5.0
  solubility thermodynamic: 37.9 µg/mL
[2]; aqueous buffer, pH 6.0
  solubility thermodynamic: 715 µg/mL
[2]; aqueous buffer, pH 8.0
  solubility thermodynamic: 16800 µg/mL
[2]; aqueous buffer, pH 9.0
  solubility thermodynamic: 23300 µg/mL
[2]; pH 7.4, aqueous buffer
  solubility thermodynamic: 11100 µg/mL
[2]; calculated from pH-solubility studies
  pKa: 2.85 ± 0.6
[3]
  stability of bulk solid drug: stable under the autoclaving conditions
[4]; in vivo, administered as a suspension
  half-life: 1800 to 2400 min
[4]; intramuscular in contrast to intravenous
  half life: increases significantly
[4]; subcutaneous administration, compared with intramuscular
  half life: increases even further
[5]
  solubility: 8000 to 10000 µg/mL
[6]; 0.25% Tween 80 in phosphate buffer, pH 8.45, aqueous with cosolvent or surfactant or cyclodextrin
  solubility: 9.5 mg/mL
[6]; 0.25% tween 80 in water, pH 8.87, aqueous with cosolvent or surfactant or cyclodextrin
  solubility: 10.5 mg/mL
[6]; 0.5% Tween 80 in phosphate buffer, pH 8.41, aqueous with cosolvent or surfactant or cyclodextrin
  solubility: 9.8 mg/mL
[6]; 0.5% tween 80 in water, pH 8.74, aqueous with cosolvent or surfactant or cyclodextrin
  solubility: 10.3 mg/mL
[6]; 1% (w/v) Povidone K 90 in water, pH 8.69, aqueous with cosolvent or surfactant or cyclodextrin
  solubility: 209 mg/mL
[6]; 1% PVP C 15, pH 8.86, aqueous with cosolvent or surfactant or cyclodextrin, thermodynamic from solid
  solubility: 26.9 mg/mL
[6]; 1% PVP C 30, pH 8.02, aqueous with cosolvent or surfactant or cyclodextrin, thermodynamic from solid
  solubility: 25.1 mg/mL
[6]; 1% Tween 80 in phosphate buffer, pH 8.45, aqueous with cosolvent or surfactant or cyclodextrin
  solubility: 8.9 mg/mL
[6]; 1% tween 80 in water, pH 8.82, aqueous with cosolvent or surfactant or cyclodextrin
  solubility: 10.1 mg/mL
[6]; 2% PVP C 15, pH 8.69, aqueous with cosolvent or surfactant or cyclodextrin, thermodynamic from solid
  solubility: 26.9 mg/mL
[6]; 2% Tween 80 in phosphate buffer, pH 8.39, aqueous with cosolvent or surfactant or cyclodextrin
  solubility: 9.7 mg/mL
[6]; 2% tween 80 in water, pH 8.78, aqueous with cosolvent or surfactant or cyclodextrin
  solubility: 9 mg/mL
[6]; 5% (w/v) Povidone K 90 in Water, pH 8.35, aqueous with cosolvent or surfactant or cyclodextrin
  solubility: 152 mg/mL
[6]; 10% PEG400:water, pH 8.24, aqueous with cosolvent or surfactant or cyclodextrin, thermodynamic from solid
  solubility: 36 mg/mL
[6]; 20% HPCD:20% PEG 400:60% water, pH 8.2, aqueous with cosolvent or surfactant or cyclodextrin
  solubility: 53.6 mg/mL
[6]; 25% PEG400:water, pH 8.01, aqueous with cosolvent or surfactant or cyclodextrin, thermodynamic from solid
  solubility: 39 mg/mL
[6]; 40% HPCD, pH 7.86, aqueous with cosolvent or surfactant or cyclodextrin
  solubility: 109 mg/mL
[6]; 50% PEG400:Buffer (0.01M), pH 8.2, aqueous with cosolvent or surfactant or cyclodextrin
  solubility: 20.8 mg/mL
[6]; 50% PEG400:Buffer (0.07M), pH 8.2, aqueous with cosolvent or surfactant or cyclodextrin
  solubility: 23.4 mg/mL
[6]; 50% PEG400:water, pH 7.53, aqueous with cosolvent or surfactant or cyclodextrin
  solubility: 40 mg/mL
[6]; 50:50 PEG400:ethanol, pH 8.46, organic solvent or mixture
  solubility: 37 mg/mL
[6]; 100% ethanol, pH 7.94, organic solvent or mixture
  solubility: 0.9 mg/mL
[6]; DMA:WATER:Ethanol (1:1:1), aqueous with cosolvent or surfactant or cyclodextrin
  solubility: 46.4 mg/mL
[6]; NN-Dimethyl Acetamide:Water:PEG 400 (1:2:2), pH 7.9, aqueous with cosolvent or surfactant or cyclodextrin
  solubility: 66.2 mg/mL
[6]; PEG300:ETH (70:30), pH 8.99, organic solvent or mixture
  solubility: 48.3 mg/mL
[6]; PEG 300:water (50:50), pH 4.5, aqueous with cosolvent or surfactant or cyclodextrin
  solubility: 30.6 mg/mL
[6]; PEG400:Benzyl alcohol (50:50), pH 8.19, organic solvent or mixture
  solubility: 51.6 mg/mL
[6]; PEG400:Ethanol 70:30, organic solvent or mixture
  solubility: 55.5 mg/mL
[6]; Propylene Glycol, organic solvent or mixture
  solubility: 44 mg/mL
[6]; Propylene glycol:water (50:50), pH 8.53, aqueous with cosolvent or surfactant or cyclodextrin
  solubility: 41.6 mg/mL
[6]; aqueous with cosolvent or surfactant or cyclodextrin, thermodynamic from solid, 10% cyclodextran
  solubility at 24 h: 46 mg/mL
[6]; aqueous with cosolvent or surfactant or cyclodextrin, thermodynamic from solid, 20% cyclodextran
  solubility at 24 h: 62 mg/mL
[6]; pH 8.21, organic solvent or mixture, PEG300 (IP10 g/kg)
  solubility: 52 mg/mL
[6]; pH 8.32, aqueous with cosolvent or surfactant or cyclodextrin, thermodynamic from solid, 5% cyclodextran
  solubility at 24 h: 39 mg/mL
[6]; pH 8.34, organic solvent or mixture, 100% PEG 400 (12 g/kg)
  solubility: 26 mg/mL
[6]; pH 8.35, aqueous with cosolvent or surfactant or cyclodextrin, thermodynamic from solid, 20% cyclodextran
  solubility at 48 h: 58 mg/mL
[6]; pH 8.41, aqueous with cosolvent or surfactant or cyclodextrin, thermodynamic from solid, 10% cyclodextran
  solubility at 48 h: 41 mg/mL
[6]; pH 8.52, aqueous with cosolvent or surfactant or cyclodextrin, thermodynamic from solid, 5% cyclodextran
  solubility at 48 h: 32 mg/mL
[6]; water, pH 8.4, water
  solubility: 11.8 mg/mL
[7]
  accelerated solid-state stability of bulk drug substance: no evidence of degradation
[8]; 75° C., Sodium Salt
  pH-stability profile: better stability at neutral and biological pH but degradation is rapid under acidic condition
[8]; biological pH
  stability in aqueous environment: quite stable in an aqueous environment at biological pH
[8]; pH-stability study, Sodium Salt
  degradation rate order: pseudo-first-order rate
